*1 amine or outer side, *2 acyl side, *3 side chain or, on linkers, in order; H or OH if unused. Where a SMILES comes first, the peptide text is derived from it. Bridges are numbered along the chain shown (N, C = ends). [ ]: non-standard residue; d: D form. The star is where a group is joined. NMePhe(2-(4-MorPh),5-Cl) = CN[C@@H](Cc1cc(Cl)ccc1-c1ccc(N2CCOCC2)cc1)C(=O)O; X43 = CC(C)N1CCN(c2ccc(-c3ccc(Cl)cc3C[C@@H](C(=O)[*:2])N(C)[*:1])cc2)CC1; X101 = CN([C@@H](Cc1cc(Cl)ccc1-c1cnn(C2CS(=O)(=O)C2)c1)C(=O)[*:2])[*:1]; X57 = CC(C)C(=O)N1C2C=C(c3ccc(Cl)cc3C[C@@H](C(=O)[*:2])N(C)[*:1])CC1CC2; X58 = CC(C)C(=O)N1CC=C(c2ccc(Cl)cc2C[C@@H](C(=O)[*:2])N(C)[*:1])CC1; X115 = CN([C@@H](Cc1cc(Cl)ccc1-c1ccc(N2CCNCC2)cc1)C(=O)[*:2])[*:1]; X26 = CN([C@@H](Cc1cc(F)ccc1-c1cnn(C2CC2)c1)C(=O)[*:2])[*:1]; NMehhhLys(Me) = CN([C@@H](CCCCCCCN(C)[*:3])C(=O)[*:2])[*:1]; NMe(hhhLys) = CN([C@@H](CCCCCCCN[*:3])C(=O)[*:2])[*:1]; cBuCO(3,3-F2-1-CF3) = O=C(C1(C(F)(F)F)CC(F)(F)C1)*; Pro(trans-4-F) = O=C(O)[C@@H]1C[C@@H](F)CN1; Gly(cPr) = N[C@H](C(=O)O)C1CC1; X102 = C[C@]1(C(=O)*)CC1(F)F
Tests used:
[1] = tested on: OVCAR3 cells; experiment: MTT proliferation assay, OVCAR3; format: cell-based; conditions: 5 days compound exposure, 1:3 serial dilution starting at 10 μM;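 also: compound given as an 8- or 10-point series, one day after plating, with exposure covering roughly 3-4 cell doublings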
[2] = tested on: WI-38 cells; experiment: MTT proliferation assay, WI-38; format: cell-based; conditions: 3 days compound exposure, 1:3 serial dilution starting at 10 μM;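 also: Eight- or ten-point dilution series, with exposure length chosen to span about three to four cell doublings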
[3] = tested on: NCI-H1048 cells; experiment: MTT proliferation assay, NCI-H1048; format: cell-based; conditions: 5 days compound exposure, 1:3 serial dilution starting at 10 μM;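 also: Dose-response in 96-well plates over 8 or 10 concentration points, with exposure spanning 3-4 cell doublings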
[4] = molecular target: T1, CyclinB1/CDK1 (Homo sapiens, UniProt P14635); experiment: Fluorescence Polarization (FP) competitive binding assay, Cyclin B1/Cdk1; conditions: 10 nM Cyclin B1/Cdk1, 2 nM FAM probe; average of 2-3 independent experiments; read-out: Cyclin B FP IC50;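 also: fluorescence polarization read after equilibration at room temperature, with IC50 taken from serially diluted dose-response curves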
T1 construct: purchased Eurofins, discovery 14-450

[5] = molecular target: T2, CyclinE1/CDK2 (Homo sapiens, UniProt P24864); experiment: Fluorescence Polarization (FP) competitive binding assay, Cyclin E1/Cdk2; conditions: 10 nM Cyclin E1/Cdk2, 2 nM FAM probe; average of 2-3 independent experiments; read-out: Cyclin E FP IC50;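 also: readings taken after two-hour equilibration at room temperature in HEPES buffer with NaCl, DTT, NP-40 and BSA, IC50 fitted from eight-concentration serial dilution series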
T2 construct: purchased Eurofins, discovery 14-475

[6] = molecular target: T3, CyclinA2/CDK2 (Homo sapiens, UniProt P20248); experiment: Fluorescence Polarization (FP) competitive binding assay, Cyclin A2/Cdk2; conditions: 8 nM Cyclin A2/Cdk2, 2 nM FAM probe; average of 2-3 independent experiments; read-out: Cyclin A FP IC50;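 also: plates equilibrated two hours at room temperature before polarization reading, IC50 fitted from eight-concentration compound titration curves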
T3 construct: purchased CRELUX Protein Services

SMILES | GI50 [1] [nM] | GI50 [2] [nM] | GI50 [3] [nM] | IC50 [4] [nM] | IC50 [5] [nM] | IC50 [6] [nM]
CC(C)C[C@@H]1NC(=O)[C@@H](N(C)C(=O)[C@@H](NC(=O)[C@@H]2C[C@@H](F)CN2C(=O)C2(C(F)(F)F)CC(F)(F)C2)C2CC2)CCCCCCCN(C)C(=O)[C@H](Cc2cc(Cl)ccc2-c2ccc(N3CCNCC3)cc2)N(C)C1=O [Example 341] ({cBuCO(3,3-F2-1-CF3)}-[Pro(trans-4-F)][Gly(cPr)][NMehhhLys(Me)]L[X115]; lactam 3-C) | 10 | 2440 | 10 | 20 | 510 | 20
CC(C)C[C@@H]1NC(=O)[C@@H](N(C)C(=O)[C@@H](NC(=O)[C@@H]2C[C@@H](F)CN2C(=O)C2(C(F)(F)F)CC(F)(F)C2)C2CC2)CCCCCCCN(C)C(=O)[C@H](Cc2cc(Cl)ccc2-c2ccc(N3CCN(C(C)C)CC3)cc2)N(C)C1=O [Example 347] ({cBuCO(3,3-F2-1-CF3)}-[Pro(trans-4-F)][Gly(cPr)][NMehhhLys(Me)]L[X43]; lactam 3-C) | 10 | 1810 | 10 | 20 | 650 | 20
COC(=O)CC[C@H](NC(=O)[C@@H]1C[C@@H](F)CN1C(=O)C1(C(F)(F)F)CC(F)(F)C1)C(=O)N(C)[C@H]1CCCCCCCN(C)C(=O)[C@H](Cc2cc(Cl)ccc2-c2ccc(N3CCOCC3)cc2)N(C)C(=O)[C@H](CC(C)C)NC1=O [Example 415] ({cBuCO(3,3-F2-1-CF3)}-[Pro(trans-4-F)]E(OMe)[NMehhhLys(Me)]L[NMePhe(2-(4-MorPh),5-Cl)]; lactam 3-C) | 10 | 14100 | 10 | 20 | 300 | 20
CC(C)C[C@@H]1NC(=O)[C@@H](N(C)C(=O)[C@@H](NC(=O)[C@@H]2C[C@@H](F)CN2C(=O)C2(C(F)(F)F)CC(F)(F)C2)C2CC2)CCCCCCCNC(=O)[C@H](Cc2cc(Cl)ccc2C2=CC3CCC(C2)N3C(=O)C(C)C)N(C)C1=O (stereo partly drawn) [Example 193] ({cBuCO(3,3-F2-1-CF3)}-[Pro(trans-4-F)][Gly(cPr)][NMe(hhhLys)]L[X57]; lactam 3-C) | 20 | 7580 | 10 | 20 | 710 | 20
CC(C)C[C@@H]1NC(=O)[C@@H](N(C)C(=O)[C@@H](NC(=O)[C@@H]2C[C@@H](F)CN2C(=O)C2(C(F)(F)F)CC(F)(F)C2)C2CC2)CCCCCCCN(C)C(=O)[C@H](Cc2cc(F)ccc2-c2cnn(C3CC3)c2)N(C)C1=O [Example 68] ({cBuCO(3,3-F2-1-CF3)}-[Pro(trans-4-F)][Gly(cPr)][NMehhhLys(Me)]L[X26]; lactam 3-C) | 10 | 12800 | 10 | 20 | 120 | 20
CC(C)C[C@@H]1NC(=O)[C@@H](N(C)C(=O)[C@@H](NC(=O)[C@@H]2C[C@@H](F)CN2C(=O)C2(C(F)(F)F)CC(F)(F)C2)C2CC2)CCCCCCCN(C)C(=O)[C@H](Cc2cc(Cl)ccc2-c2cnn(C3CS(=O)(=O)C3)c2)N(C)C1=O [Example 255] ({cBuCO(3,3-F2-1-CF3)}-[Pro(trans-4-F)][Gly(cPr)][NMehhhLys(Me)]L[X101]; lactam 3-C) | 30 | 15800 | 40 | 20 | 210 | 20
CC(C)C[C@@H]1NC(=O)[C@@H](N(C)C(=O)[C@@H](NC(=O)[C@@H]2C[C@@H](F)CN2C(=O)C2(C(F)(F)F)CC(F)(F)C2)C2CC2)CCCCCCCN(C)C(=O)[C@H](Cc2cc(Cl)ccc2C2=CCN(C(=O)C(C)C)CC2)N(C)C1=O [Example 143] ({cBuCO(3,3-F2-1-CF3)}-[Pro(trans-4-F)][Gly(cPr)][NMehhhLys(Me)]L[X58]; lactam 3-C) | 20 | 5180 | 10 | 20 | 940 | 20
CC(C)C[C@@H]1NC(=O)[C@@H](N(C)C(=O)[C@@H](NC(=O)[C@@H]2C[C@@H](F)CN2C(=O)[C@@]2(C)CC2(F)F)C2CC2)CCCCCCCN(C)C(=O)[C@H](Cc2cc(Cl)ccc2-c2ccc(N3CCOCC3)cc2)N(C)C1=O [Example 400] (X102-[Pro(trans-4-F)][Gly(cPr)][NMehhhLys(Me)]L[NMePhe(2-(4-MorPh),5-Cl)]; lactam 3-C) | 10 | 4610 | 10 | 20 | 490 | 20

Source: patent US20240408169A1 (priority 2023, published 2024)
